Data on 25 compounds can be found in patent publication US7371769B2, “Tetrahydropyridin-4-yl indoles with a combination of affinity for dopamine-D2 receptors and serotonin reuptake sites” (Solvay Pharmaceuticals B.V., priority 2004, dated 2008).

Where a name gives a salt, the structure may show the parent alone.

The target in one series is T1, dopamine-D2 receptors (Rattus norvegicus, UniProt P61169).
T1 construct: labels dopamine receptors in rat pituitary and brain; from tissue; host or cells: rat pituitary / brain (from the title of the cited method only)
Nature of the series: In vitro affinity for dopamine-D2 receptors ([3H]-spiroperidol receptor binding assay). The note with it: read-out: Dopamine-D2 pKi (converted). Here is the method: In vitro Affinity for Dopamine-D2 Receptors
Affinity of the compounds for dopamine-D2 receptors was determined using the receptor binding assay described by I. Creese, R. Schneider and S. H. Snyder: “[^3H]-Spiroperidol labels dopamine receptors in rat pituitary and brain”, Eur. J. Pharmacol., 46, 377-381,1977.
(§1) The affinity of the compounds of the invention for dopamine-D2 receptors and serotonine reuptake sites was determined as described above. From the binding affinity measured for a given compound of formula (1), one can estimate a theoretical lowest effective dose. At a concentration of the compound equal to twice the measured Ki-value, 100% of the receptors likely will be occupied by the compound. Converting that concentration to mg of compound per kg of patient yields a theoretical lowest effective dose, assuming ideal bioavailability. Pharmacokinetic, pharmacodynamic, and other considerations may alter the dose actually administered to a higher or lower value. The dosage expediently administered is 0.001-1000 mg/kg, preferably 0.1-100 mg/kg of patient's bodyweight.

For the next series, the target named is T2, serotonin reuptake sites (Rattus norvegicus, UniProt P31652).
T2 construct: from tissue; host or cells: rat cortical membranes (from the title of the cited method only)
Put plainly: In vitro affinity for serotonin reuptake sites ([3H]-paroxetine binding assay). The following applies: read-out: 5-HT reuptake pKi (converted). Here is the method: In vitro Affinity for Serotonin Reuptake Sites
Affinity of the compounds for serotonin reuptake sites was determined using the receptor binding assay described by E. Habert et al.,: “Characterisation of [^3H]-paroxetine binding to rat cortical membranes”, Eur. J. Pharmacol., 118, 107-114, 1985.
as §1

T2 sequence (P31652 whole entry): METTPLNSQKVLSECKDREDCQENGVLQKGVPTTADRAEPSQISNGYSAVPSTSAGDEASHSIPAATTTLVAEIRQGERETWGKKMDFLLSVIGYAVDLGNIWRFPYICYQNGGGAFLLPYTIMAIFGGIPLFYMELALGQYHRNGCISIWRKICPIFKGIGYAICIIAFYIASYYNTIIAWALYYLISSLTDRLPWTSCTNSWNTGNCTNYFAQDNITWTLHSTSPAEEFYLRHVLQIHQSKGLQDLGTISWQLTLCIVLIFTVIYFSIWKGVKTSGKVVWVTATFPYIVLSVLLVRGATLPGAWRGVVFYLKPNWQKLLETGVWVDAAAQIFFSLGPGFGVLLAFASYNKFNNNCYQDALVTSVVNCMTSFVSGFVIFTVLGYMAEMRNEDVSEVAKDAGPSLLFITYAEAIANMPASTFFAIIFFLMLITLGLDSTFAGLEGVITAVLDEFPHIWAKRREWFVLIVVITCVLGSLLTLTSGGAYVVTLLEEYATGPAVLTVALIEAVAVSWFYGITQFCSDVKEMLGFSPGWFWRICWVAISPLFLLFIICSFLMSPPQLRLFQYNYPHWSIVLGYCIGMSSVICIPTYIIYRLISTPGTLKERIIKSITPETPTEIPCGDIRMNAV
T1 sequence (P61169 whole entry): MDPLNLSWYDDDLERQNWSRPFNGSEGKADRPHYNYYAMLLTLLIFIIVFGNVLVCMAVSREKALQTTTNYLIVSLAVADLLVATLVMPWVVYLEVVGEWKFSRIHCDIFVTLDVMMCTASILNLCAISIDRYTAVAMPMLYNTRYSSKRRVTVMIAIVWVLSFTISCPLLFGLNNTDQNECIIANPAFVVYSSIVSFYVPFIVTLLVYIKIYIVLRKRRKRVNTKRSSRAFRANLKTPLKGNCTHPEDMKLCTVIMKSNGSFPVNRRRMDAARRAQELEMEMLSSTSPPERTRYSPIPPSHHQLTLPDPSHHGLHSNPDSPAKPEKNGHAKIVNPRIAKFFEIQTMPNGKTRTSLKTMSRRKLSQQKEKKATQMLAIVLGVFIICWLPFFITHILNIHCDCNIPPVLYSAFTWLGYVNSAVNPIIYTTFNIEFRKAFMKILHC

In general, melting point refers to the temperature, or range, at which the solid turns liquid. In the case of `Cc1nc2ccccn2c(=O)c1CCN1CC=C(c2c[nH]c3ccccc23)CC1` (as salt: HCl) [Compound 1], the melting point was 205 °C (dec.).
Still for that read-out and setting: under `Cc1ccn2c(=O)c(CCN3CC=C(c4c[nH]c5ccccc45)CC3)c(C)nc2c1` (as salt: HCl) [Compound 15] stands 261 to 264 °C; under `COc1nc(C)c(CCN2CC=C(c3c[nH]c4ccccc34)CC2)c(=O)n1C` (as salt: HCl) [Compound 18, 5-[2-[4-(1H-indol-3-yl)-1,2,3,6-tetrahydropyridin-1-yl]ethyl]-2-methoxy-3,6-dimethyl-3H-pyrimidin-4-one], 209 to 211 °C; under `CSc1nc(C)c(CCN2CC=C(c3c[nH]c4ccccc34)CC2)c(=O)n1C` (as salt: salt), 245 to 246 °C.
On the same count and under the same terms, for `Cc1nc2c(C)cccn2c(=O)c1CCN1CC=C(c2c[nH]c3ccc(F)cc23)CC1` (as salt: salt) the value was 229 to 230 °C; for `Cc1nc2ccccn2c(=O)c1CCN1CC=C(c2c[nH]c3ccc(F)cc23)CC1` (as salt: salt) [Compound 7], 226 to 227 °C (dec.).
In the case of `CSc1nc(C)c(CCN2CC=C(c3c[nH]c4ccc(F)cc34)CC2)c(=O)n1C` (as salt: salt) [Compound 19], the melting point was 229 °C (dec.).
On to `Cc1nc2c(C)cccn2c(=O)c1CCN1CC=C(c2c[nH]c3ccccc23)CC1` (as salt: salt) [Compound 22, 3-[2-[4-(1H-indol-3-yl)-1,2,3,6-tetrahydropyridin-1-yl]-ethyl]-2,9-dimethyl-4H-pyrido[1,2-a]pyrimidin-4-one], for which the melting point was in the range of 242 to 246 °C.
Still for that read-out and setting: under `CCc1ccn2c(=O)c(CCN3CC=C(c4c[nH]c5ccc(F)cc45)CC3)c(C)nc2c1` (as salt: salt) [Compound 24] stands 198 to 201 °C; under `Cc1nc2cc(-c3ccccc3)ccn2c(=O)c1CCN1CC=C(c2c[nH]c3ccccc23)CC1` (as salt: salt) [Compound 27], 211 to 224 °C; under `Cc1ncn(C)c(=O)c1CCN1CC=C(c2c[nH]c3ccc(F)cc23)CC1` (as salt: salt) [Compound 33], 234 to 235 °C (dec.).
Consider `Cc1nc2ccccn2c(=O)c1CCN1CC=C(c2c[nH]c3ccccc23)CC1` [Compound 1], for which the results for the Ki on dopamine-D2 receptors and at serotonin reuptake sites were 20 nM and 1.58 nM, respectively.
`Cc1nc2ccccn2c(=O)c1CCN1CC=C(c2c[nH]c3ccc(F)cc23)CC1` [Compound 7]: the Ki is 15.8 nM on dopamine-D2 receptors and 0.316 nM at serotonin reuptake sites.
For `Cc1nc2n(c(=O)c1CCN1CC=C(c3c[nH]c4ccccc34)CC1)CCS2` [Compound 10], in that order: 15.8 nM and 1.58 nM.
In the same order, the values of `Cc1nc2sccn2c(=O)c1CCN1CC=C(c2c[nH]c3ccccc23)CC1` [Compound 11] are 10 nM and 2.51 nM.
For `CSc1nc(C)c(CCN2CC=C(c3c[nH]c4ccccc34)CC2)c(=O)[nH]1` [Compound 14], in that order: 100 nM and 50.1 nM.
`Cc1ccn2c(=O)c(CCN3CC=C(c4c[nH]c5ccccc45)CC3)c(C)nc2c1` [Compound 15]: the Ki at dopamine-D2 receptors is 7.94 nM; on serotonin reuptake sites, 3.98 nM.
In the case of `COc1nc(C)c(CCN2CC=C(c3c[nH]c4ccccc34)CC2)c(=O)n1C` [Compound 18, 5-[2-[4-(1H-indol-3-yl)-1,2,3,6-tetrahydropyridin-1-yl]ethyl]-2-methoxy-3,6-dimethyl-3H-pyrimidin-4-one], the Ki on dopamine-D2 receptors is 31.6 nM; at serotonin reuptake sites, 0.794 nM.
In the same order, the values of `CSc1nc(C)c(CCN2CC=C(c3c[nH]c4ccc(F)cc34)CC2)c(=O)n1C` [Compound 19] are 6.31 nM and 25.1 nM.
In the same order, the values of `CSc1nc(C)c(CCN2CC=C(c3cn(C)c4ccccc34)CC2)c(=O)n1C` [Compound 20] are 100 nM and 7.94 nM.
For `Cc1ccn2c(=O)c(CCN3CC=C(c4c[nH]c5ccc(F)cc45)CC3)c(C)nc2c1` [Compound 21], in that order: 31.6 nM and 0.158 nM.
`Cc1nc2c(C)cccn2c(=O)c1CCN1CC=C(c2c[nH]c3ccccc23)CC1` [Compound 22, 3-[2-[4-(1H-indol-3-yl)-1,2,3,6-tetrahydropyridin-1-yl]-ethyl]-2,9-dimethyl-4H-pyrido[1,2-a]pyrimidin-4-one]: the Ki on dopamine-D2 receptors is 7.94 nM; on serotonin reuptake sites it was 1.58 nM.
In the same order, the values of `CCc1ccn2c(=O)c(CCN3CC=C(c4c[nH]c5ccc(F)cc45)CC3)c(C)nc2c1` [Compound 24] are 10 nM and 7.94 nM.
For `Cc1nc2cc(-c3ccccc3)ccn2c(=O)c1CCN1CC=C(c2c[nH]c3ccccc23)CC1` [Compound 27], in that order: 63.1 nM and 0.316 nM.
For `Cc1ncn(C)c(=O)c1CCN1CC=C(c2c[nH]c3ccc(F)cc23)CC1` [Compound 33], in that order: 50.1 nM and 3.16 nM.
